Tests used:
PTGER4 (EP4) = PTGER4 (EP4) (Homo sapiens (Human), UniProt P35408); test: cell-based
PTGER2 (EP2) = PTGER2 (EP2) (Homo sapiens (Human), UniProt P43116); test: hEP2 b-arrestin assay (PathHunter HEK 293 PTGER2 b-arrestin cells); format: cell-based; conditions: antagonistic activity, beta-arrestin assay; read-out: hEP2 b-arr IC50
Protocol: Plate is pre-incubated 15 minutes at 37° C. Then five microliters of PGE2 (final conc. 5 μM) are transferred into the assay plate. Plate is incubated 120 minutes at 37° C.
(each concentration is measured in duplicate)

PTGER2 (EP2), sequence (P43116 whole entry): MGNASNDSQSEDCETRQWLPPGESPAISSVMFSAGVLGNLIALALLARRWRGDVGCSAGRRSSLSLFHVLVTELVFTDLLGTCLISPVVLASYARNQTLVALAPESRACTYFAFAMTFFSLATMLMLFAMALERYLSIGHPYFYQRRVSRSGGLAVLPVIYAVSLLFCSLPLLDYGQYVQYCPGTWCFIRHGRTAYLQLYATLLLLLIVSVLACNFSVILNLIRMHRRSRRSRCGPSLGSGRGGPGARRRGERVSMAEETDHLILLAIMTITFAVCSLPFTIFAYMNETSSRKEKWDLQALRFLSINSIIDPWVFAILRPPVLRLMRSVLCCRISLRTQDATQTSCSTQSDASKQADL
PTGER4 (EP4), sequence (P35408 whole entry): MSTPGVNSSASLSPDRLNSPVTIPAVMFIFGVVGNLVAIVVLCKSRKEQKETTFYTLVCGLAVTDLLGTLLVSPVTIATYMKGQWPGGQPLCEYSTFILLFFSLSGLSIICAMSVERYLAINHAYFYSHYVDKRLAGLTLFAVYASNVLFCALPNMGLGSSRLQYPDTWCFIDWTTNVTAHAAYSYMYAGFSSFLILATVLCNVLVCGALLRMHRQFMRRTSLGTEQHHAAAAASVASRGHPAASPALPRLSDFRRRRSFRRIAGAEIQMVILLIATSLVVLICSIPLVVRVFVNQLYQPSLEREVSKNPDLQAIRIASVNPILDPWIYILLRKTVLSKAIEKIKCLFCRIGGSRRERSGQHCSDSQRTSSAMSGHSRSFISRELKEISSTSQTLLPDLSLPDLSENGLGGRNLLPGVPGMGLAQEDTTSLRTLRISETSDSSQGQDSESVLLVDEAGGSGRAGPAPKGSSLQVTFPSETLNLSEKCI

| SMILES | IC50 (PTGER4 (EP4)) [nM] | IC50 (PTGER2 (EP2)) [nM] |
| --- | --- | --- |
| CCOc1cc2c(cc1CCNc1cc(-c3ccc(CC(=O)O)c(CC)c3)ncn1)OCCO2 [Example 512, (4-{6-[2-(7-Ethoxy-2,3-dihydro-benzo[1,4]dioxin-6-yl)-ethylamino]-pyrimidin-4-yl}-2-ethyl-phenyl)-acetic acid] | 220 | 67 |
| O=C(O)c1n[nH]c2cc(-c3cc(NCCc4cc(F)c5sccc5c4)ncn3)ccc12 [Example 562, 6-{6-[2-(7-Fluoro-benzo[b]thiophen-5-yl)-ethylamino]-pyrimidin-4-yl}-1H-indazole-3-carboxylic acid] | 689 | 803 |
| CCOc1cc(-c2cc(NCCc3cc(C)c4sccc4c3)ncn2)ccc1C(=O)O [Example 476, 2-Ethoxy-4-{6-[2-(7-methyl-benzo[b]thiophen-5-yl)-ethylamino]-pyrimidin-4-yl}-benzoic acid] | 264 | 428 |
| CCOc1cc(-c2cc(NCCc3cc(F)c4sccc4c3)ncn2)ccc1C(=O)NC [Example 462, 2-Ethoxy-4-{6-[2-(7-fluoro-benzo[b]thiophen-5-yl)-ethylamino]-pyrimidin-4-yl}-N-methyl-benzamide] | 197 | 325 |
| CSc1cc(-c2cc(NCCc3cc(F)c4sccc4c3)ncn2)ccc1C(=O)O [Example 364, 4-{6-[2-(7-Fluoro-benzo[b]thiophen-5-yl)-ethylamino]-pyrimidin-4-yl}-2-methylsulfanyl-benzoic acid] | 52 | 151 |
| O=C(O)c1ccc(-c2cc(NCCc3cc(F)c4sccc4c3)ncn2)cc1 [Example 496, 4-{6-[2-(7-Fluoro-benzo[b]thiophen-5-yl)-ethylamino]-pyrimidin-4-yl}-benzoic acid] | 908 | 588 |
| CCCn1cc(-c2cc(NCCc3cc(F)c4sccc4c3)ncn2)cc1C(=O)O [Example 548, 4-{6-[2-(7-Fluoro-benzo[b]thiophen-5-yl)-ethylamino]-pyrimidin-4-yl}-1-propyl-1H-pyrrole-2-carboxylic acid] | 295 | 933 |
| CCOc1cc2c(cc1CCNc1cc(-c3ccc(CC(=O)O)c(OC(F)F)c3)ncn1)OCCO2 [Example 510, (2-Difluoromethoxy-4-{6-[2-(7-ethoxy-2,3-dihydro-benzo[1,4]dioxin-6-yl)-ethylamino]-pyrimidin-4-yl}-phenyl)-acetic acid] | 194 | 45 |
| CCOc1cc(-c2cc(NCCc3cc(F)c4sccc4c3)ncn2)ccc1C(=O)C(=O)O [Example 537, (2-Ethoxy-4-{6-[2-(7-fluoro-benzo[b]thiophen-5-yl)-ethylamino]-pyrimidin-4-yl}-phenyl)-oxo-acetic acid] | 76 | 670 |
| COc1cc(-c2cc(NCCc3ccc4c(c3C)OCCO4)ncn2)ccc1CC(=O)O [Example 505, (2-Methoxy-4-{6-[2-(5-methyl-2,3-dihydro-benzo[1,4]dioxin-6-yl)-ethylamino]-pyrimidin-4-yl}-phenyl)-acetic acid] | 929 | 427 |
| CCOc1cc(-c2cc(NCCc3cc(C(F)(F)F)c4sccc4c3)ncn2)sc1C(=O)O [Example 488, 3-Ethoxy-5-{6-[2-(7-trifluoromethyl-benzo[b]thiophen-5-yl)-ethylamino]-pyrimidin-4-yl}-thiophene-2-carboxylic acid] | 45 | 723 |
| CCCc1cc(-c2cc(NCCc3cc(F)c4sccc4c3)ncn2)cc(OCC)c1C(=O)O [Example 551, 2-Ethoxy-4-{6-[2-(7-fluoro-benzo[b]thiophen-5-yl)-ethylamino]-pyrimidin-4-yl}-6-propyl-benzoic acid] | 867 | 900 |
| CCc1cc(-c2cc(NCCc3c(OC)cc4c(c3C)OCCO4)ncn2)ccc1CC(=O)O [Example 444, (2-Ethyl-4-{6-[2-(7-methoxy-5-methyl-2,3-dihydro-benzo[1,4]dioxin-6-yl)-ethylamino]-pyrimidin-4-yl}-phenyl)-acetic acid] | 43 | 15 |
| COC(=O)c1sc(-c2cc(NCCc3ccc4ccccc4c3C)ncn2)cc1O [Example 468, 3-Hydroxy-5-{6-[2-(1-methyl-naphthalen-2-yl)-ethylamino]-pyrimidin-4-yl}-thiophene-2-carboxylic acid methyl ester] | 571 | 564 |
| COc1cc2c(cc1CCNc1cc(-c3ccc(C(=O)O)c(OC4CC4)c3)ncn1)OCCO2 [Example 520, 2-Cyclopropoxy-4-{6-[2-(7-methoxy-2,3-dihydro-benzo[1,4]dioxin-6-yl)-ethylamino]-pyrimidin-4-yl}-benzoic acid] | 107 | 19 |
| CCOc1cc(-c2cc(NCCc3ccc4scc(Cl)c4c3)ncn2)ccc1CC(=O)O [Example 431, (4-{6-[2-(3-Chloro-benzo[b]thiophen-5-yl)-ethylamino]-pyrimidin-4-yl}-2-ethoxy-phenyl)-acetic acid] | 52 | 179 |
| O=C(O)c1coc2cc(-c3cc(NCCc4cc(F)c5sccc5c4)ncn3)ccc12 [Example 549, 6-{6-[2-(7-Fluoro-benzo[b]thiophen-5-yl)-ethylamino]-pyrimidin-4-yl}-benzofuran-3-carboxylic acid] | 190 | 560 |
| CCOc1cc(-c2cc(NCCc3ccc4sccc4c3F)ncn2)ccc1OCCC(=O)O [Example 421, 3-(2-Ethoxy-4-{6-[2-(4-fluoro-benzo[b]thiophen-5-yl)-ethylamino]-pyrimidin-4-yl}-phenoxy)-propionic acid] | 22 | 84 |
| COc1cc2c(c(C)c1CCNc1cc(-c3ccc(CC(=O)O)c(OC(F)(F)F)c3)ncn1)OCCO2 [Example 428, (4-{6-[2-(7-Methoxy-5-methyl-2,3-dihydro-benzo[1,4]dioxin-6-yl)-ethylamino]-pyrimidin-4-yl}-2-trifluoromethoxy-phenyl)-acetic acid] | 41 | 7 |
| CCCc1cc(-c2cc(NCCc3c(OC)cc4c(c3F)OCCO4)ncn2)ccc1CC(=O)O [Example 408, (4-{6-[2-(5-Fluoro-7-methoxy-2,3-dihydro-benzo[1,4]dioxin-6-yl)-ethylamino]-pyrimidin-4-yl}-2-propyl-phenyl)-acetic acid] | 24 | 29 |
| COc1cc2c(c(C)c1CCNc1cc(-c3ccc(CC(=O)O)c(OC(C)C)c3)ncn1)OCCO2 [Example 426, (2-Isopropoxy-4-{6-[2-(7-methoxy-5-methyl-2,3-dihydro-benzo[1,4]dioxin-6-yl)-ethylamino]-pyrimidin-4-yl}-phenyl)-acetic acid] | 46 | 9 |
| CCOc1cc(-c2cc(NCCc3ccc4ccccc4c3C)ncn2)ccc1Cc1noc(=O)[nH]1 [Example 566, 3-(2-Ethoxy-4-{6-[2-(1-methyl-naphthalen-2-yl)-ethylamino]-pyrimidin-4-yl}-benzyl)-[1,2,4]oxadiazol-5(4H)-one] | 159 | 297 |
| CCOc1cc(-c2cc(NCCc3cc(F)c4sccc4c3)ncn2)ccc1C(N)=O [Example 461, 2-Ethoxy-4-{6-[2-(7-fluoro-benzo[b]thiophen-5-yl)-ethylamino]-pyrimidin-4-yl}benzamide] | 121 | 231 |

— patent publication US11839613B2, “Pyrimidine derivatives as PGE2 receptor modulators” (IDORSIA PHARMACEUTICALS LTD, priority 2017, dated 2023)
